Where a SMILES comes first, the peptide text is derived from it. Where no end group is shown, it is not given here. [ ]: non-standard residue; d: D form.
How the values were obtained:
[1] = test system: mouse hippocampal neurons treated with toxic amyloid beta oligomer; assay: Amyloid beta-induced synapse loss in primary hippocampal neurons; format: cell-based; details: 6.6 nM; co-treated with toxic amyloid beta oligomer; 21 DIV
Experimental: Alzheimer's disease (AD) is tightly associated with the dysmetabolism of amyloid-R (A3). To begin assessing whether the polypeptides provided herein (i.e., comprising the FAM19A5 binding domain of LRRC4 protein family members) could have any therapeutic effects on AD, the effect of various FB-21 peptide fragments described herein on the deformation of synapse induced by toxic A3 oligomer and following structural recovery was assessed. Specifically, the following FB-21 peptide fragments were tested: FB-21, FB-JM-31 and FB-BBB-39 (see Example 10).
Aβ42 (#20276) peptide was purchased from AnaSpec (Fremont, USA). […]
Hippocampal neurons were treated with 6.6 nM FB-21, 6.6 nM of FB-13-JM and 6.6 nM of FB-13-BBBX2 at 14, 17 and 20 DIV to determine the level of synaptogenesis at 21 DIV by immunostaining SYP, a presynapse marker protein and PSD95, a postsynapse marker protein. To quantify fluorescence intensity for SYN and PSD95 and number of colocalized voxels between SYN and PSD95 signals, z-stack confocal images of 3 m in depth were converted to 3D images using IMARIS software (IMARIS9.0, Bitplane AG, Zurich, Switzerland). The “Surface tool” of the IMARIS software was used to exclude all the signals detected in neuronal cell bodies, and number of colocalized voxels between SYN and PSD95 signals in neurites were calculated using the “Coloc tool”. […]

[2] = target: complex of human LRRC4B protein (hFc-fused) and recombinant FAM19A5 protein (Homo sapiens, UniProt Q7Z5A7); assay: Competitive inhibition assay (IC50), plate coated with LRRC4B(453-576, TT/TT)-hFc; format: binding; details: hFc-fused hLRRC4B; from IC50 of Table 14
Experimental: The in silico analysis provided in Example 9 highlighted that certain T12 and L13 double mutants might be important in improving the binding affinity of the polypeptides of the present disclosure to the FAM19A5 protein. Therefore, the ability of both the wild-type FB-21 peptide (which is the same as the FB-20 peptide described herein except that the FB-21 peptide additionally contains an alanine at the C-terminus) and several FB-21 mutants were tested for their inhibitor effect on hFc-fused hLRRC4B and FAM19A5 complex formation. Briefly, plate was coated with 100 nM of LRRC4B(453-576, TT/TT)-hFc and then 1 ng/mL of rFAM19A5 was incubated at 37° C. in the presence of increasing concentrations of the different FB-21 peptide fragments (0.03, 0.1, 0.3, 1, 3, 10, 30, 100, 300 and 1000 nM). The LRRC4B-bound FAM19A5 levels were measured using HRP-conjugated 1-65 antibody.

[3] = target: complex of His-TEV LRRC4B and recombinant FAM19A5 protein (Homo sapiens, UniProt Q7Z5A7); assay: Competitive inhibition assay (IC50), plate coated with His-TEV LRRC4B; format: binding; details: FIG. 22C; d-form peptides; methods as for Table 15
Experimental: To further assess the inhibitory effect of the FB-21 mutants, the ability of additional FB-21 mutants described in Example 9 were tested for their ability to inhibit the interaction between FAM19A5 protein and LRRC4B protein. Briefly, plates were coated with 100 nM of His-TEV LRRC4B and then 1 ng/mL of rFAM19A5 was incubated at 37° C. in the presence of increasing concentrations of the FB-21 peptide fragments (0.3, 1, 3, 10, 30, 100, 300, 1000, 3000 and 10000 nM). The LRRC4B-bound FAM19A5 levels were measured using HRP-conjugated 1-65 SS01 antibody. As shown in FIG. 22B (see Table 15 for IC50), most (if not all) of the FB-21 mutants had improved ability in inhibiting the interaction between LRRC4B and recombinant FAM19A5 protein.
Next, to assess whether other properties of the polypeptides described herein can be improved (e.g., solubility, prevention of degradation from protease and peptidase, and in vivo administration), the following additional FB-21 peptide mutants were constructed and tested for their ability to inhibit the interaction between FAM19A5 protein and LRRC4B: (1) d-form FB-21 peptide (“dFB-21”), (2) d-form FB-21 peptide with juxta-membrane (JM) sequence (“dFB-JM-31”), (3) d-form FB-21 peptide with BBB penetrating sequence at each end of the sequence (“dFB-BBB-39”), and (4) d-form FB-21 mutant peptide with DY replacement and additional JM sequence (“dFB-DY-JM31”). […]

Sequence of complex of human LRRC4B protein (hFc-fused) and recombinant FAM19A5 protein (Q7Z5A7 44-132, one chain of several): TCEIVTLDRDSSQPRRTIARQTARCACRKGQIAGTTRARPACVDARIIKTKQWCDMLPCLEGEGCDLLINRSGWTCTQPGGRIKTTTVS
Sequence of complex of His-TEV LRRC4B and recombinant FAM19A5 protein (Q7Z5A7 44-132, one chain of several): as above

Compound: nYTYFTTVTVETLETQPGEEALDEVMKTTKa ([dN]YTYFTTVTVETLETQPGEEALDEVMKTTK[dA]; also: terminal modifications) [dFB-JM-31]
- colocalized voxels for PSD95 and synaptophysin [1]: significant increase

Compound: CC(C)[C@H](NC(=O)[C@@H](NC(=O)[C@@H](NC(=O)[C@@H](NC(=O)[C@@H](NC(=O)[C@H](Cc1ccccc1)NC(=O)[C@H](Cc1ccc(O)cc1)NC(=O)[C@@H](NC(=O)[C@H](Cc1ccc(O)cc1)NC(=O)CN)[C@@H](C)O)[C@@H](C)O)[C@@H](C)O)C(C)C)[C@@H](C)O)C(=O)N[C@@H](CCC(=O)O)C(=O)N[C@@H](Cc1c[nH]c2ccccc12)C(=O)N[C@@H](Cc1ccc(O)cc1)C(=O)N[C@@H](CCC(=O)O)C(=O)N[C@H](C(=O)N[C@@H](CCC(N)=O)C(=O)N1CCC[C@H]1C(=O)NCC(=O)N[C@@H](CCC(=O)O)C(=O)N[C@@H](CCC(=O)O)C(=O)N[C@@H](C)C(=O)O)[C@@H](C)O [FB-21 (W12Y13)] (H-GYTYFTTVTVEWYETQPGEEA-OH; N-terminus and C-terminus assumed)
- increase in ability to dissociate the LRRC4B-FAM19A5 complex compared with wild-type FB-21 [2]: 2.9 fold

Compound: nYTYFTTVTVEDYETQPGEEALDEVMKTTKa ([dN]YTYFTTVTVEDYETQPGEEALDEVMKTTK[dA]; also: terminal modifications) [dFB-DY-JM31]
- more effective in inhibiting complex formation compared to the wild-type FB-21 [3]: 4 fold
